Values of other authors as cited in publication PMC4273976 (ACS chemical biology, 2014).

System: EphA4-dependent growth cone collapse
Details: 5 μM peptide, nasal retinal explants; cited from earlier work

KYLPYWPVLSSL
inhibition of ephrin-A5-induced growth cone collapse: blocked
